Laboratory results as given in US12655150B2 (Cedilla Therapeutics, Inc., priority 2021, dated 2026).

test system: NCI-H226; test: 72H TEAD Proliferation Assay (Cell Titer Glo 2.0); type: cell-based; details: CTG 2.0, cell line not given (NCI-H226 responsive, NCI-H28 non-responsive)
Procedure, shortened: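 Growth read-out is ATP luminescence (CellTiter-Glo 2.0) after 72 h compound exposure, corrected for no-CTG background and day-0 values, with GI50 from nonlinear regression. Sensitive line NCI-H226 (NF2-deficient); non-responsive NCI-H28 (NF2 wild type) distinguishes TEAD-driven from nonspecific growth inhibition.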

Row | GI50 [µM] | Structure (SMILES)
1 | ≤ 1 | COc1cc(-c2ccc(C(F)(F)F)cc2)nc2cc(C(=O)N3CCC3CO)ccc12 (single isomer, unassigned) [I-373, (2-(hydroxymethyl)azetidin-1-yl) (4-methoxy-2-(4-(trifluoromethyl)phenyl)quinolin-7-yl)methanone]

same assay, conditions: Homo sapiens, NCI-H226, 72 h, CTG 2.0, cell line not given (NCI-H226 responsive, NCI-H28 non-responsive)

Row | Structure (SMILES) | GI50 [µM]
2 | CC(C)(C)c1ccc(-c2nc(C(=O)O)cn3ccnc23)cc1 [I-147, 8-(4-(tert-Butyl)phenyl)imidazo[1,2-a]pyrazine-6-carboxylic acid] | > 10
3 | O=C(O)c1ccc2c(c1)nc(N1CCCCC1)c1cccn12 [I-2, 4-(Piperidin-1-yl)pyrrolo[1,2-a]quinoxaline-7-carboxylic acid] | > 10
4 | CC(C)(C)c1ccc(-c2cnc3ccc(C(N)=O)cc3n2)cc1 [I-158, 3-(4-(tert-Butyl)phenyl)quinoxaline-6-carboxamide] | > 10
5 | CC(C)(C)c1ccc(-c2nc(O)cn3ccnc23)cc1 [I-148, 8-(4-(tert-Butyl)phenyl)imidazo[1,2-a]pyrazin-6-ol] | > 10
6 | CC(C)(C)C#Cc1nc2cc(C(=O)O)ccc2n2cccc12 [I-118, 4-(3,3-Dimethylbut-1-yn-1-yl)pyrrolo[1,2-a]quinoxaline-7-carboxylic acid] | > 10
7 | COc1cnc(-c2ccc(C(C)(C)C)cc2)c2nccn12 [I-150, 8-(4-(tert-Butyl)phenyl)-5-methoxyimidazo[1,2-a]pyrazine] | > 10
8 | CC(C)(C)c1ccc(-c2nc3cc(C#N)ccc3n3ccnc23)cc1 [I-75, 4-(4-(tert-Butyl)phenyl)imidazo[1,2-a]quinoxaline-7-carbonitrile] | > 10
9 | O=C(O)c1ccc2c(c1)nc(N1CCc3ccccc3C1)c1cccn12 [I-21, 4-(3,4-Dihydroisoquinolin-2(1H)-yl)pyrrolo[1,2-a]quinoxaline-7-carboxylic acid] | > 10
10 | O=C(O)c1ccc2c(c1)nc(N1CCN(C3CC3)CC1)c1cccn12 [I-40, 4-(4-Cyclopropylpiperazin-1-yl) pyrrolo[1,2-a]quinoxaline-7-carboxylic acid] | 1 to 5
11 | CC(C)(C)c1ccc(-c2nc3cc(C(=O)NCCO)ccc3n3cccc23)cc1 [I-185, 4-(4-(tert-butyl)phenyl)-N-(2-hydroxyethyl)pyrrolo[1,2-a]quinoxaline-7-carboxamide] | 1 to 5
12 | CC(C)(C)c1ccc(-c2nc(/C=C/C#N)cn3ccnc23)cc1 [I-154, (E)-3-(8-(4-(tert-Butyl)phenyl)imidazo[1,2-a]pyrazin-6-yl)acrylonitrile] | 1 to 5
13 | COCc1cc(-c2ccc(C(F)(F)F)cc2)nc2cc(C(=O)N[C@H](C)CO)ccc12 [I-271, (R)—N-(1-hydroxypropan-2-yl)-4-(methoxymethyl)-2-(4-(trifluoromethyl)phenyl)quinoline-7-carboxamide] | 1 to 5

Next, values leading:

Row | GI50 [µM] | Structure (SMILES)
14 | 1 to 5 | COc1cc(-c2ccc(C(F)(F)F)cc2)nc2cc(C(=O)NC3(CO)CC3)ccc12 [I-353, N-(1-(hydroxymethyl)cyclopropyl)-4-methoxy-2-(4-(trifluoromethyl)phenyl)quinoline-7-carboxamide]
15 | 1 to 5 | CC(C)c1cc(-c2ccc(C(F)(F)F)cc2)nc2cc(C(=O)N[C@H](C)CO)ccc12 [I-426, (R)—N-(1-hydroxypropan-2-yl)-4-isopropyl-2-(4-(trifluoromethyl)phenyl)quinoline-7-carboxamide]
16 | ≤ 1 | C=CC(=O)NCc1nc(-c2ccc(C(F)(F)F)cc2)c2ccncc2n1 [I-309, N-((4-(4-(trifluoromethyl)phenyl)pyrido[3,4-d]pyrimidin-2-yl)methyl)acrylamide]
17 | ≤ 1 | O=C(O)c1ccc2c(OCC3CC3)cc(-c3ccc(C(F)(F)F)cc3)nc2c1 [I-375, 4-(cyclopropylmethoxy)-2-(4-(trifluoromethyl)phenyl)quinoline-7-carboxylic acid]
18 | ≤ 1 | COc1nc(-c2ccc(C(F)(F)F)cc2)nc2cc(C(=O)O)ccc12 [I-433, 4-methoxy-2-(4-(trifluoromethyl)phenyl)quinazoline-7-carboxylic acid]
19 | 1 to 5 | CC(O)C(=O)Nc1ccc2c(c1)nc(-c1ccc(C(C)(C)C)cc1)c1cccn12 (centres unmarked) [I-204, N-(4-(4-(tert-Butyl)phenyl)pyrrolo[1,2-a]quinoxalin-7-yl)-2-hydroxypropanamide]
20 | ≤ 1 | C=CC(=O)Nc1ccc2c(c1)nc(-c1ccc(C(F)(F)F)cc1F)c1nccn12 [I-133, N-(4-(2-Fluoro-4-(trifluoromethyl)phenyl)imidazo[1,2-a]quinoxalin-7-yl)acrylamide]
21 | 1 to 5 | CC(C)(C)c1ccc(-c2nc3cc(S(N)(=O)=O)ccc3n3cccc23)cc1 [I-311, 4-(4-(tert-butyl)phenyl)pyrrolo[1,2-a]quinoxaline-7-sulfonamide]
22 | 1 to 5 | O=C(O)c1ccc2c(c1)nc(N1CCC3(CCOCC3)CC1)c1cccn12 [I-27, 4-(3-Oxa-9-azaspiro [5.5]undecan-9-yl) pyrrolo[1,2-a] quinoxaline-7-carboxylic acid]
23 | ≤ 1 | C=CC(=O)N1CC(c2cn3ccnc3c(-c3ccc(C(F)(F)F)cc3)n2)C1 [I-245, 1-(3-(8-(4-(Trifluoromethyl)phenyl)imidazo[1,2-a]pyrazin-6-yl)azetidin-1-yl)prop-2-en-1-one]
24 | ≤ 1 | C=CC(=O)NCc1cn2c(C(F)(F)F)cnc2c(-c2ccc(C(F)(F)F)cc2)n1 [I-246, N-((3-(trifluoromethyl)-8-(4-(trifluoromethyl)phenyl)imidazo[1,2-a]pyrazin-6-yl)methyl)acrylamide]
25 | 1 to 5 | N#CNCc1cn2ccnc2c(-c2ccc(C(F)(F)F)cc2)n1 [I-238, N-((8-(4-(Trifluoromethyl)phenyl)imidazo[1,2-a]pyrazin-6-yl)methyl)cyanamide]
26 | 1 to 5 | O=C(O)c1cc2nc(-c3ccc(C(F)(F)F)cc3)c3ccccc3n2c1 [I-421, 5-(4-(trifluoromethyl)phenyl)pyrrolo[1,2-a]quinazoline-2-carboxylic acid]
27 | ≤ 1 | C=CC(=O)NCc1cn2cc(C(F)(F)F)nc2c(-c2ccc(C(F)(F)F)cc2)n1 [I-247, N-((2-(trifluoromethyl)-8-(4-(trifluoromethyl)phenyl)imidazo[1,2-a]pyrazin-6-yl)methyl)acrylamide]
28 | ≤ 1 | C=CC(=O)NCc1cn2ccnc2c(-c2ccc(C(C)(C)C)cc2)n1 [I-140, N-((8-(4-(tert-butyl)phenyl)imidazo[1,2-a]pyrazin-6-yl)methyl)acrylamide]
29 | ≤ 1 | C=CC(=O)NCc1nc(-c2ccc(C(F)(F)F)cc2)cn2ccnc12 [I-408, N-((6-(4-(trifluoromethyl)phenyl)imidazo[1,2-a]pyrazin-8-yl)methyl)acrylamide]
30 | ≤ 1 | C=CC(=O)NCc1nc(-c2ccc(C(F)(F)F)cc2)c2c(ccn2C)n1 [I-451, N-((5-methyl-4-(4-(trifluoromethyl)phenyl)-5H-pyrrolo[3,2-d]pyrimidin-2-yl)methyl)acrylamide]
31 | ≤ 1 | CC[C@H](CO)NC(=O)c1ccc2c(OC)cc(-c3ccc(C(F)(F)F)cc3)nc2c1 [I-326, (R)—N-(1-hydroxybutan-2-yl)-4-methoxy-2-(4-(trifluoromethyl)phenyl)quinoline-7-carboxamide]
32 | ≤ 1 | CC(NC(=O)N1CCc2c(cccc2-c2ccc(C(F)(F)F)cc2)C1)c1ccccn1 (centres unmarked) [I-179, N-(1-(pyridin-2-yl)ethyl)-5-(4-(trifluoromethyl)phenyl)-3,4-dihydroisoquinoline-2(1H)-carboxamide]
